Data: US10155007B2, “Synthesis method for improved tenofovir disoproxil fumarate using ion-exchange resin and method for preparing oral dissolving film form using the same” (Firson, priority 2014, dated 2018)

Test: Solubility of tenofovir in the aqueous neutralization solution
Assay type: physicochemical
Experimental: The present invention also relates to a method of adding a defined proportion of calcium hydride to magnesium butoxide that is a catalyst commonly used in the synthesis of DEPMPA from HPA to shorten the reaction time from 18 hours to 6 hours or less and cause the production of toluene calcium sulfonate to reduce highly deliquescent substances, and using an ion-exchange resin (Dowex 50W, sulfonic acid cation exchange resin) after neutralization with a counter-alkali solution in the dealcoholizing hydrolysis of the ester compound into tenofovir, thereby to reach a precise isoelectric point (pH 3.2) and further increase the synthesis yield of tenofovir. Generally, when the pH value is 2.5 to 3.5 in the neutralization, tenofovir (H2O, one-molecule crystal water) is dissolved in the aqueous solution at about 7 percent. When the neutralization is perfectly performed with the ion-exchange resin, the solubility of tenofovir can be reduced to 4 percent or below.

solubility of tenofovir (neutralization perfectly performed with the ion-exchange resin): ≤ 4%
tenofovir dissolved in the aqueous solution (pH 2.5 to 3.5 in the neutralization, tenofovir H2O, one-molecule crystal water): about 7%
Structure (SMILES): C[C@H](Cn1cnc2c(N)ncnc21)OCP(=O)(O)O [tenofovir, (R)-9-[2-(phosphonomethoxy)propyl]adenine]
